Reference: ChEMBL document CHEMBL4393690, “Acylated sulfonamide adenosines as potent inhibitors of the adenylate-forming enzyme superfamily” (Eur J Med Chem, 2019)

What was measured:
[1] = target: Isoleucine--tRNA ligase (Escherichia coli K-12, UniProt P00956); test: (§1) Inhibition of recombinant Escherichia coli BL21(DE3) isoleucyl-tRNA synthetase expressed in Escherichia coli Rosetta 2 (DE3) assessed as reduction in tRNA aminoacylation preincubated for 10 mins in presence of [14C]-isoleucin and tRNA followed by ATP addition and measured after 6 mins by scintillation counting method
[2] = target: Serine--tRNA ligase (Escherichia coli (strain K12)) (UniProt P0A8L1); test: as §1, with “seryl-tRNA” for “isoleucyl-tRNA”, “aminoacylation at 2 uM” for “aminoacylation”
Chain of Serine--tRNA ligase (Escherichia coli (strain K12)) (P0A8L1 whole entry, looked up): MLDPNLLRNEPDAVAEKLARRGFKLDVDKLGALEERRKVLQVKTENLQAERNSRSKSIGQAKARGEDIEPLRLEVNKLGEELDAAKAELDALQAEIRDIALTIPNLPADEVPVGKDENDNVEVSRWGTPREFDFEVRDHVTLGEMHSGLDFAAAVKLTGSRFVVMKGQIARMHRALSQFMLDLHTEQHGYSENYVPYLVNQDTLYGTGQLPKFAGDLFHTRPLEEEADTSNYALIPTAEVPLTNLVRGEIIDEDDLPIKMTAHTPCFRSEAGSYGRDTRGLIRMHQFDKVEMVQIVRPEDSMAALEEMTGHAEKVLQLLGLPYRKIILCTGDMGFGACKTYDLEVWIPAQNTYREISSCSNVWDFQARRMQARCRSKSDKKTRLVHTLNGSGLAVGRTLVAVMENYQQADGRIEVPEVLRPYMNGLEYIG

Chain of Isoleucine--tRNA ligase (P00956 whole entry): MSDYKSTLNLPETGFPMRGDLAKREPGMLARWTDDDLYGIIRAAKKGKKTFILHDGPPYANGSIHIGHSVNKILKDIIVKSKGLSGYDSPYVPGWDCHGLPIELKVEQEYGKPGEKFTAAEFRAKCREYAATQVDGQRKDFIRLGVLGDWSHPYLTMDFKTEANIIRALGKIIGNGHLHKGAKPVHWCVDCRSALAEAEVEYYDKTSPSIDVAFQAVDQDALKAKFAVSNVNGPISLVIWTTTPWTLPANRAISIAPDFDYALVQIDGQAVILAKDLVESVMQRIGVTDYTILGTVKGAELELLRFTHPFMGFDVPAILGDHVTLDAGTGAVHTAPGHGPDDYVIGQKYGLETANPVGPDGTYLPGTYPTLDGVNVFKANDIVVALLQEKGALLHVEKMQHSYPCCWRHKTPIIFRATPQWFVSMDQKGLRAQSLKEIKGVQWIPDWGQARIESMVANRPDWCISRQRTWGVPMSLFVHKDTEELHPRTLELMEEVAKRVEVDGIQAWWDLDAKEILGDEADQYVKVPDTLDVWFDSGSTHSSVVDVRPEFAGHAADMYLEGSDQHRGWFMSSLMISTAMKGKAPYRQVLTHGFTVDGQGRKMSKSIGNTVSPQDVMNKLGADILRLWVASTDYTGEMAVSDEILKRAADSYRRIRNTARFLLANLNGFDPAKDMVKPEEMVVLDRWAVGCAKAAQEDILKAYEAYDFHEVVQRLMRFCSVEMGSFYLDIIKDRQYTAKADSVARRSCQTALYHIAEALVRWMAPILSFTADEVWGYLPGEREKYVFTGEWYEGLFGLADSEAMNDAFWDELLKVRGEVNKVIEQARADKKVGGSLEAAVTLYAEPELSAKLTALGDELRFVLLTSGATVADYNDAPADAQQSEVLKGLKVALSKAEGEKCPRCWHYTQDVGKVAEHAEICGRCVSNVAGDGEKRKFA

IC50 [1] | Ki ([1]; read-out: Ki(app)) | inhibition [2] | SMILES
6.8 nM | 1.2 nM | – | CC[C@H](C)[C@H](N)C(=O)NS(=O)(=O)CC[C@H]1O[C@@H](n2cnc3c(N)ncnc32)[C@H](O)[C@@H]1O
– | – | 30% | Nc1ncnc2c1ncn2[C@@H]1O[C@H](CCS(=O)(=O)NC(=O)[C@@H](N)CO)[C@@H](O)[C@H]1O
